We go through seven compounds from patent publication US7544707B2, “Bicyclic derivatives as PPAR modulators” (Eli Lilly and Company, priority 2003, dated 2009).

Broadly, the melting point is the temperature, or range, at which the solid turns liquid.

Each structure is given as a SMILES string.

For `Cc1cc(OC(c2ccccc2)c2cccc3c2cnn3-c2ccc(C(F)(F)F)cc2)ccc1OC(C)(C)C(=O)O` (racemic) [Example 91, (+/−)-2-Methyl-2-(2-methyl-4-{phenyl-[1-(4-trifluoromethylphenyl)-1H-indazol-4-yl]methoxy}phenoxy)propionic Acid], the melting point was in the range of 140 to 145 °C.
The result for `Cc1cc(SCc2cccc3nn(-c4ccc(C(F)(F)F)cc4)cc23)ccc1OCC(=O)O` [Example 26, 2-Methyl-4-[2-(4-trifluoromethylphenyl)-2H-indazol-4-ylmethylsulfanyl]phenoxyacetic Acid] reads 105 to 108 °C; that for `Cc1cc(OCc2ccc3nn(-c4ccc(C(F)(F)F)cc4)cc3c2)ccc1OC(C)(C)C(=O)O` [Example 61, 2-Methyl-2-{2-methyl-4-[2-(4-trifluoromethylphenyl)-2H-indazol-5-ylmethoxy]phenoxy}propionic Acid], 164 to 166 °C.
The result for `Cc1cc(SC(C)c2ccc3cn(-c4ccc(C(F)(F)F)cc4)nc3c2)ccc1OC(C)(C)C(=O)O` (racemic) [Example 60, (+/−)-2-Methyl-2-(2-methyl-4-{1-[2-(4-trifluoromethylphenyl)-2H-indazol-6-yl]ethylsulfanyl}phenoxy)propionic Acid] reads 114 to 116 °C; that for `CC(Oc1ccc(OC(C)(C)C(=O)O)cc1)c1cccc2nn(-c3ccc(C(F)(F)F)cc3)cc12` (racemic) [Example 75, (+/−)-2-Methyl-2-(4-{1-[2-(4-trifluoromethylphenyl)-2H-indazol-4-yl]ethoxy}phenoxy)propionic Acid], 86 to 88 °C.
As to `Cc1cc(SCc2cccc3cn(-c4ccc(C(F)(F)F)cc4)nc23)ccc1OCC(=O)O` [Example 1, 2-Methyl-4-[2-(4-trifluoromethylphenyl)-2H-indazol-7-ylmethylsulfanyl]phenoxyacetic Acid], the melting point is 79 to 81 °C.
The result for `CC(C)(Oc1ccc(OCc2ccc3nn(-c4ccc(C(F)(F)F)cc4)cc3c2)cc1)C(=O)O` [Example 65, 2-Methyl-2-{4-[2-(4-trifluoromethylphenyl)-2H-indazol-5-ylmethoxy]phenoxy}propionic Acid] reads 203 to 205 °C.
